Measured values: PMC12042115 (mLife, 2025)
In brackets after ≈: the same amount, converted by molar mass. Where two headings read alike, the source gives them in different places.

Legend:
GH189 (clpP1‐KD) = assay: microbe, parasite or virus in culture; type: cell-based, M. bovis BCG; conditions: for MIC: Mycobacterium tuberculosis variant bovis BCG
Mtb ClpP1P2 = Mtb ClpP1P2 (Mycobacterium tuberculosis, UniProt P9WPC3+P9WPC5); assay: Mtb ClpP1P2 peptidase assay (library screening and IC50 determination); type: biochemical
Mtb ClpP1P2, sequence (P9WPC3 16-214, one chain of several): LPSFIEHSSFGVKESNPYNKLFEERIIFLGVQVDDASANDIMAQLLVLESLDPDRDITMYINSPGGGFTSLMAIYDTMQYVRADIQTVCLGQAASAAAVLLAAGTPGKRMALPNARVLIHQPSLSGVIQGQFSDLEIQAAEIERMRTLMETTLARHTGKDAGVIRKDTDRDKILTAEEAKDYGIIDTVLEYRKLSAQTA

M. tuberculosis H37Rv = assay: MIC against Mtb H37Rv; type: cell-based, Mycobacterium tuberculosis; conditions: for MIC90: Mycobacterium tuberculosis, H37RV
[1] = read-out: MIC (µg/ml) when clpP1‐KD induced
[2] = read-out: MIC (µg/ml) when no clpP1‐KD
[3] = Figure S4, highest concentration 100 µM, read-out: concentration inhibiting 50% of the peptidase activity
[4] = Figure 2B, neat/synthesized compounds, read-out: ClpP1P2 IC50

Molecule	MIC (GH189 (clpP1‐KD); [1]) [µg/mL]	MIC (GH189 (clpP1‐KD); [2]) [µg/mL]	other results
CC[C@H]1OC(=O)[C@H](C)[C@@H](O[C@H]2C[C@@](C)(OC)[C@@H](O)[C@H](C)O2)[C@H](C)[C@@H](O[C@@H]2O[C@H](C)C[C@H](N(C)C)[C@H]2O)[C@](C)(O)C[C@@H](C)CN(C)[C@H](C)[C@@H](O)[C@]1(C)O [Azithromycin]	0.46 (≈ 0.614 µM)	0.5 (≈ 0.668 µM)	
COc1nc2ccc(Br)cc2cc1[C@@H](c1ccccc1)[C@@](O)(CCN(C)C)c1cccc2ccccc12 [Bedaquiline]	0.06 (≈ 0.108 µM)	0.06 (≈ 0.108 µM)	
CC[C@H]1OC(=O)[C@H](C)[C@@H](O[C@H]2C[C@@](C)(OC)[C@@H](O)[C@H](C)O2)[C@H](C)[C@@H](O[C@@H]2O[C@H](C)C[C@H](N(C)C)[C@H]2O)[C@](C)(OC)C[C@@H](C)C(=O)[C@H](C)[C@@H](O)[C@]1(C)O [Clarithromycin]	0.1 (≈ 0.134 µM)	0.11 (≈ 0.147 µM)	
N[C@@H]1CON=C1O [D‐Cycloserine]	9.3 (≈ 91.1 µM)	11 (≈ 108 µM)	
CC[C@@H](CO)NCCN[C@@H](CC)CO [Ethambutol]	0.28 (≈ 1.37 µM)	0.62 (≈ 3.03 µM)	downshift in the MIC against GH189 on clpP1‐KD (GH189 (clpP1‐KD)): > 2 fold
CCc1cc(C(N)=S)ccn1 [Ethionamide]	6.4 (≈ 38.5 µM)	46 (≈ 277 µM)	downshift in the MIC against GH189 on clpP1‐KD (GH189 (clpP1‐KD)): > 2 fold; IC50 (Mtb ClpP1P2; [3]): > 100 µM
O=C(Oc1ccccc1)c1ccc(N2CCOCC2)c([N+](=O)[O-])c1 [GDI‐5756]			MIC shift against GH189 on ATc induction (GH189 (clpP1‐KD)): marginally shifted down; inhibition of Mtb whole cell at 100 µM (M. tuberculosis H37Rv): Neither analog could inhibit; MIC90 (M. tuberculosis H37Rv): > 100 µM; inhibition of ClpP1P2 peptidase at 100 µM (Mtb ClpP1P2): Neither analog could inhibit; IC50 (Mtb ClpP1P2; [4]): > 100 µM
O=C(Nc1ccc(Cl)cc1)c1ccc(N2CCOCC2)c([N+](=O)[O-])c1 [GDI‐5757]			MIC shift against GH189 on ATc induction (GH189 (clpP1‐KD)): remained inactive; inhibition of Mtb whole cell at 100 µM (M. tuberculosis H37Rv): Neither analog could inhibit; MIC90 (M. tuberculosis H37Rv): > 100 µM; inhibition of ClpP1P2 peptidase at 100 µM (Mtb ClpP1P2): Neither analog could inhibit; IC50 (Mtb ClpP1P2; [4]): > 100 µM
NNC(=O)c1ccncc1 [Isoniazid]	0.057 (≈ 0.416 µM)	0.066 (≈ 0.481 µM)	IC50 (Mtb ClpP1P2; [3]): > 100 µM
CC(=O)NC[C@H]1CN(c2ccc(N3CCOCC3)c(F)c2)C(=O)O1 [Linezolid]	0.97 (≈ 2.88 µM)	1 (≈ 2.96 µM)	
C[C@@H](O)[C@H]1C(=O)N2C(C(=O)O)=C(S[C@@H]3CN[C@H](C(=O)N(C)C)C3)[C@H](C)[C@H]12 [Meropenem]	1.6 (≈ 4.17 µM)	5.3 (≈ 13.8 µM)	downshift in the MIC against GH189 on clpP1‐KD (GH189 (clpP1‐KD)): > 2 fold; IC50 (Mtb ClpP1P2; [3]): > 100 µM
O=[N+]([O-])c1cn2c(n1)OC[C@@H](OCc1ccc(OC(F)(F)F)cc1)C2 [Pretomanid]	0.06 (≈ 0.167 µM)	0.12 (≈ 0.334 µM)	
NC(=O)c1cnccn1 [Pyrazinamide, reference compound]			IC50 (Mtb ClpP1P2; [3]): > 100 µM
CO[C@H]1/C=C/O[C@@]2(C)Oc3c(C)c(O)c4c(O)c(c(/C=N/N5CCN(C)CC5)c(O)c4c3C2=O)NC(=O)/C(C)=C\C=C\[C@H](C)[C@H](O)[C@@H](C)[C@@H](O)[C@@H](C)[C@H](OC(C)=O)[C@@H]1C [Rifampicin]	0.01 (≈ 0.0122 µM)	0.01 (≈ 0.0122 µM)	
CO[C@H]1/C=C/O[C@@]2(C)Oc3c(C)c(O)c4c(O)c(cc(O)c4c3C2=O)NC(=O)/C(C)=C\C=C\[C@H](C)[C@H](O)[C@@H](C)[C@@H](O)[C@@H](C)[C@H](OC(C)=O)[C@@H]1C [Rifamycin, reference compound]			IC50 (Mtb ClpP1P2; [3]): > 100 µM
O=C(Oc1ccc(Cl)cc1)c1ccc(COC(=O)c2cnccn2)cc1 [SAM002946897]			IC50 (Mtb ClpP1P2; library stocks, concentration–response, read-out: IC50): 3.23 µM
[H]/N=C(/N)N[C@H]1[C@H](O)[C@@H](O)[C@H](O[C@@H]2O[C@@H](C)[C@](O)(C=O)[C@H]2O[C@@H]2O[C@@H](CO)[C@H](O)[C@@H](O)[C@@H]2NC)[C@@H](N/C(N)=N\[H])[C@@H]1O [Streptomycin]	0.23 (≈ 0.395 µM)	0.24 (≈ 0.413 µM)	
Capreomycin			MIC (µg/ml) when clpP1‐KD induced (GH189 (clpP1‐KD)): 0.14 µg/mL; MIC (µg/ml) when no clpP1‐KD (GH189 (clpP1‐KD)): 0.25 µg/mL
